{"source": "patent US10786547B2", "about": "“Compositions, articles of manufacture and methods for treating cancer” (Biokine Therapeutics Ltd., priority 2015, dated 2020)", "key": {"[1]": {"target": "CXCR4 receptor (Homo sapiens, UniProt P61073)", "sequence (P61073 whole entry)": "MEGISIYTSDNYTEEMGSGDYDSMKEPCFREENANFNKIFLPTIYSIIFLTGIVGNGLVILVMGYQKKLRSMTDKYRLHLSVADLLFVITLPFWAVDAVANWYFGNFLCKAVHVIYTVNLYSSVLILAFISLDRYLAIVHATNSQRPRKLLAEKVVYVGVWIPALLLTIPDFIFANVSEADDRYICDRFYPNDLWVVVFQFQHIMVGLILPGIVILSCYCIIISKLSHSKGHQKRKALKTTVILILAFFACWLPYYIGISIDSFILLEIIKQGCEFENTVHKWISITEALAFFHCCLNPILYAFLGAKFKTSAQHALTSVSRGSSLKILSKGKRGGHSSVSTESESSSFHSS", "details": "cited from earlier work"}, "[2]": {"details": "in vivo"}, "[3]": {"test_system": "CD34+ hematopoietic stem/progenitor cells (HSPC)", "details": "multiple myeloma patients, combined treatment of BL-8040 and G-CSF, single aphaeresis procedure; cited from earlier work"}, "[4]": {"test_system": "immune cells including immature stem/progenitor cells, T cells and NK cells", "experiment": "in-vivo administration, mobilization of immune and stem/progenitor cells", "details": "to the peripheral blood"}, "[5]": {"test_system": "myeloid leukemia, hematopoietic tumors and non-small cell lung cancer", "details": "cited from earlier work"}, "[6]": {"test_system": "immune cells including immature stem/progenitor cells, T cells and NK cells", "details": "\"It has been shown\"; cited from earlier work"}, "[7]": {"test_system": "long term repopulating stem cells", "details": "mice, single BL-8040 injection; cited from earlier work"}}, "note": "Entries after “also recorded” stand apart in the source; their conditions may differ. [ ]: non-standard residue; d: D form. The star is where a group is joined. Benzoyl(4-F) = O=C(c1ccc(F)cc1)*; Cit = NC(=O)NCCC[C@H](N)C(=O)O"}
{"substance": "4F-benzoyl-Arg-Arg-Nal-Cys-Tyr-Cit-Lys-DLys-Pro-Tyr-Arg-Cit-Cys-Arg-NH2 ({Benzoyl(4-F)}-RR[Nal]CY[Cit]K[dK]PYR[Cit]CR-NH2; cysteine pairing not given here) [BL-8040]", "values": [{"measurement": "receptor occupancy", "setting": "[1]; CXCR4 receptor", "result": "long receptor occupancy"}, {"measurement": "affinity of binding to the CXCR4 receptor", "setting": "[1]", "result": "high affinity"}, {"measurement": "safety and tolerability", "setting": "[2]", "result": "safe and well tolerated"}, {"measurement": "collection of CD34+ hematopoietic stem/progenitor cells (HSPC)", "setting": "[3]", "result": "enabled the collection of high number of CD34+ hematopoietic stem/progenitor cells (HSPC) in a single aphaeresis procedure"}, {"measurement": "mobilization of immune cells", "setting": "[4]", "result": "induces rapid mobilization of a variety of immune cells including immature stem/progenitor cells as well as fully differentiated T cells and NK cells; also recorded: induce rapid mobilization of hematopoietic stem/progenitor cells and mesenchymal stem cells as well as T cells, B cells, NK cells, NKT cells and ImDC to the peripheral blood"}, {"measurement": "toxicity against tumors", "setting": "[5]", "result": "toxic against several tumors such as myeloid leukemia, hematopoietic tumors and non-small cell lung cancer"}, {"measurement": "mobilization of CD34+ hematopoietic stem/progenitor cells (HSPC)", "setting": "[6]", "result": "induces mobilization of CD34+ hematopoietic stem/progenitor cells (HSPC) that can be further used for transplantation"}, {"measurement": "mobilization of long term repopulating stem cells", "setting": "[7]", "result": "mobilized long term repopulating stem cells sufficient for transplantation"}]}
